Experimental data reported in US20160289702A1, “Biosynthetic Mint” (The University of Manchester, priority 2015, published 2016).

Assays:
MMR-His6 = test: Steady-state kinetics, ketoreductase activity by NADPH oxidation monitoring; type: biochemical, Mentha piperita; conditions: NADPH oxidation at 340 nm, 25° C., monoterpenoid 1 mM
Description: (§1) The concentration of nicotinamide coenzymes (Melford) was determined by the extinction coefficient method (ε340=[…]). Steady-state kinetic analyses were performed on a Cary UV-50 Bio UV/Vis scanning spectrophotometer using a quartz cuvette (1 mL; HelIma) with a 1 cm path length. Standard reactions (1 mL) were performed in buffer (50 mM Tris pH 7.0) containing NADPH (50-100 μM for MMR/MNMR and NtDBR, respectively), monoterpenoid (1 mM) and enzyme (30 nM to 2 μM). Reactions were followed by continuously monitoring NADPH oxidation at 340 nm for 1 min at 25° C. The standard monoterpenoid substrates used were pulegone for NtDBR (alkene reduction) and menthone/isomenthone for both MMR and MNMR (ketoreduction). Ketoreductase reactions were performed in an alternative buffer (12.5 mM tri-sodium citrate, 12.5 mM KH2PO4, 12.5 mM K2HPO4and 12.5 mM CHES) containing dithiothreitol (1 mM; DTT). All steady state reactions were performed in at least duplicate.
(§2) The cloning strategies enable the rapid generation and manipulation of multi-gene expression constructs from individual ‘components’, including the presence of repeated sequences of relatively high GC content. Initially, the three ‘mint’ pathway recombinant enzymes (NtDBR, MMR and MNMR) were purified, and preliminary biocatalytic ability of each was assessed to test their functionality when produced in a bacterial system. The three genes encoding these plant enzymes were first codon-optimised for E. coli and cloned into pET21b to generate C-His6-tagged recombinant enzymes. After production and purification, each enzyme was tested for activity under steady state conditions, via indirect NADPH oxidation monitoring.

His6-MNMR-His6 = test: as above; type: biochemical, Mentha piperita; conditions: NADPH oxidation at 340 nm, 25° C., monoterpenoid 1 mM
Description: as §1, §2

MMR = conditions: Davis et al. 2005; cited from earlier work
NtDBR-His6 = target: T1, NtDBR-His6 (Nicotiana tabacum, UniProt Q9SLN8); test: Steady-state kinetics, ene-reductase activity by NADPH oxidation monitoring; type: biochemical; conditions: NADPH oxidation at 340 nm, 25° C., monoterpenoid 1 mM, 50 mM Tris pH 7.0
T1 construct: made in house; host or cells: E. coli BL21(DE3)pLysS
Description: as §1
The cloning strategies enable the rapid generation and manipulation of multi-gene expression constructs from individual ‘components’, including the presence of repeated sequences of relatively high GC content. Initially, the three ‘mint’ pathway recombinant enzymes (NtDBR, MMR and MNMR) were purified, and preliminary biocatalytic ability of each was assessed to test their functionality when produced in a bacterial system. […]

T1 sequence (Q9SLN8 whole entry): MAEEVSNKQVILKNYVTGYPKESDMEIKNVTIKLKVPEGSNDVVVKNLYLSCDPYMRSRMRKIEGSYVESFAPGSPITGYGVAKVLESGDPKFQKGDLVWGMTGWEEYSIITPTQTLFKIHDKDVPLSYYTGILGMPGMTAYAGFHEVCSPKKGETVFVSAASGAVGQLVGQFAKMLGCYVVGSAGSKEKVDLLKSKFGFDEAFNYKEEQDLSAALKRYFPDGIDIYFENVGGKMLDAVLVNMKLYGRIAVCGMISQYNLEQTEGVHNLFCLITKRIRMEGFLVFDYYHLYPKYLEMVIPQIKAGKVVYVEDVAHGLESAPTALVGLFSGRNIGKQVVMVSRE

Row | SMILES | Ketoreductase activity (MMR-His6) | Ketoreductase activity (His6-MNMR-His6) | specificity for menthone over isomenthone (MMR) | ene-reductase activity (NtDBR-His6)
1 | CC(C)[C@H]1CC[C@@H](C)CC1=O [(2R,5R)-isomenthone] | 2.00 s⁻¹ | 0.20 s⁻¹ | – | –
2 | CC(C)[C@@H]1CC[C@@H](C)CC1=O [(2S,5R)-menthone, (2S,5R)-trans-2-Isopropyl-5-methylcyclohexanone] | 1.63 s⁻¹ | 0.96 s⁻¹ | 10 fold | –
3 | CC(C)=C1CC[C@@H](C)CC1=O [(5R)-pulegone] | – | – | – | < 0.1 s⁻¹
